According to publication PMC6543826 (Bioorganic chemistry, 2018):
Where “and” joins values, the source holds several entries; their conditions need not be identical. Identical values can stand only once.

Columns and labels:
JNK2 = JNK2 (Homo sapiens, UniProt P45984); assay: in vitro kinase assay, GST-c-Jun; type: biochemical
HT29 = assay: cells; type: cell-based
LOX IMVI = assay: cells; type: cell-based
OVCAR-4 = assay: cells; type: cell-based
NCI-H226 = assay: cells; type: cell-based
SK-MEL-28 = assay: cells; type: cell-based
UO-31 = assay: cells; type: cell-based
PC-3 = assay: cells; type: cell-based
MALME-3M = assay: cells; type: cell-based
A549/ATCC = assay: cells; type: cell-based
HCC-2998 = assay: cells; type: cell-based
p38MAPKα = p38MAPKα (Homo sapiens, UniProt Q16539); assay: in vitro kinase assay, GST-ATF2; type: biochemical
p38MAPKα, sequence (Q16539 whole entry): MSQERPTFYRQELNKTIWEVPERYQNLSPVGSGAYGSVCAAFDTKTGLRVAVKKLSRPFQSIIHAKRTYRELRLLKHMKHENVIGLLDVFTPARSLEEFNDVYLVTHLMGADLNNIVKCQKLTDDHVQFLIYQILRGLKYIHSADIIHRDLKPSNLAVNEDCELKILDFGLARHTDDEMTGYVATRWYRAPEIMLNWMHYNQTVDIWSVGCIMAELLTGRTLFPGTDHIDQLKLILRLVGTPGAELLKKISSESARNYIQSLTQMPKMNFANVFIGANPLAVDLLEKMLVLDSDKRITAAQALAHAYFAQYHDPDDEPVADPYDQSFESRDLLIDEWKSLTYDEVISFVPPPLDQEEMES

OVCAR-5 = assay: cells; type: cell-based
HOP-92 = assay: cells; type: cell-based
NCI-H23 = assay: cells; type: cell-based
HOP-62 = assay: cells; type: cell-based
SR = assay: cells; type: cell-based
KM 12 = assay: cells; type: cell-based
NCI-H322M = assay: cells; type: cell-based
IGROV1 = assay: cells; type: cell-based; conditions: Homo sapiens

JNK2, sequence (P45984 whole entry): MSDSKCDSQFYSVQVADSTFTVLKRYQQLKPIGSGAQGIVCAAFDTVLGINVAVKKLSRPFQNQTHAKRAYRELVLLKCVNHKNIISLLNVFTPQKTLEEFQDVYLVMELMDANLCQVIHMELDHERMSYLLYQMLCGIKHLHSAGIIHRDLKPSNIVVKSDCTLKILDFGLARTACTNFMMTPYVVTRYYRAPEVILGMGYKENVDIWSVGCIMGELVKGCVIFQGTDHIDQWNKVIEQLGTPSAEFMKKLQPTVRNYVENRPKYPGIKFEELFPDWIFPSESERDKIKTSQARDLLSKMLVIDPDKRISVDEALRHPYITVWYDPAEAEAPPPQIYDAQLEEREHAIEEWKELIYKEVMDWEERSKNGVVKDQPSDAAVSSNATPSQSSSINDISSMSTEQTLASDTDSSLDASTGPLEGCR

## O=C1c2ccccc2C(=O)c2c1oc1c2c(=O)[nH]c2ccc(Cl)cc21 [3b, 2-Chloronaphtho[2′,3′:4,5]furo[3,2-c]quinoline-6,7,12(5H)-trione]
JNK2
  IC50: 24 ± 1.24 µM
  ability to inhibit JNK2 (in words): little tendency to inhibit
HT29; HT29, 10^−5 M, 48 h
  Growth percent (G%): 66.37%
HT29; HT29, five-dose
  TGI: 12.88 µM
HT29; Homo sapiens, HT-29
  GI50: 3.72 µM
HT29; Homo sapiens, HT-29, read-out: LC50
  CC50: 39.8 µM
LOX IMVI; 10^−5 M, 48 h
  Growth percent (G%): 11.13%
LOX IMVI; Homo sapiens
  GI50: 0.32 µM
LOX IMVI; Homo sapiens, read-out: LC50
  CC50: 3.98 µM
LOX IMVI; five-dose
  TGI: 1.32 µM
OVCAR-4; Homo sapiens, OVCAR-4
  GI50: 0.17 µM
OVCAR-4; Homo sapiens, OVCAR-4, read-out: LC50
  CC50: 1.51 µM
OVCAR-4; OVCAR-4, 10^−5 M, 48 h
  Growth percent (G%): −42.04%
OVCAR-4; OVCAR-4, five-dose
  TGI: 0.45 µM
NCI-H226; Homo sapiens, NCI-H226
  GI50: 0.14 µM
NCI-H226; Homo sapiens, NCI-H226, read-out: LC50
  CC50: 0.87 µM
NCI-H226; NCI-H226, 10^−5 M, 48 h
  Growth percent (G%): −28.80%
NCI-H226; NCI-H226, five-dose
  TGI: 0.35 µM
SK-MEL-28; Homo sapiens, SK-MEL-28
  GI50: 0.34 µM
SK-MEL-28; Homo sapiens, SK-MEL-28, read-out: LC50
  CC50: 4.68 µM
SK-MEL-28; SK-MEL-28, 10^−5 M, 48 h
  Growth percent (G%): −11.84%
SK-MEL-28; SK-MEL-28, five-dose
  TGI: 1.23 µM
UO-31; Homo sapiens, UO-31
  GI50: 0.19 µM
UO-31; Homo sapiens, UO-31, read-out: LC50
  CC50: 2.51 µM
UO-31; UO-31, 10^−5 M, 48 h
  Growth percent (G%): −54.91%
UO-31; UO-31, five-dose
  TGI: 0.60 µM
PC-3; Homo sapiens, PC-3
  GI50: 0.18 µM
PC-3; Homo sapiens, PC-3, read-out: LC50
  CC50: 1.58 µM
PC-3; PC-3, 10^−5 M, 48 h
  Growth percent (G%): −33.26%
PC-3; PC-3, five-dose
  TGI: 0.46 µM
MALME-3M; Homo sapiens, Malme-3M
  GI50: 0.23 µM
MALME-3M; Homo sapiens, Malme-3M, read-out: LC50
  CC50: 0.85 µM
MALME-3M; MALME-3M, 10^−5 M, 48 h
  Growth percent (G%): −51.66%
A549/ATCC; A549/ATCC, 10^−5 M, 48 h
  Growth percent (G%): −0.05%
A549/ATCC; A549/ATCC, five-dose
  TGI: 2.88 µM
A549/ATCC; Homo sapiens, A549
  GI50: 1.02 µM
A549/ATCC; Homo sapiens, A549, read-out: LC50
  CC50: 8.32 µM
HCC-2998; HCC-2998, 10^−5 M, 48 h
  Growth percent (G%): 65.07%
HCC-2998; HCC-2998, five-dose
  TGI: 2.57 µM
HCC-2998; Homo sapiens, HCC 2998, read-out: LC50
  CC50: 9.12 µM
p38MAPKα
  ability to inhibit p38MAPKα (in words): little tendency to inhibit
p38MAPKα; p38MAPKα IC50, 10 μM GST-ATF2
  IC50: 28 µM and 27.9 µM
OVCAR-5; Homo sapiens, OVCAR-5
  GI50: 3.47 µM
OVCAR-5; Homo sapiens, OVCAR-5, read-out: LC50
  CC50: 40.7 µM
OVCAR-5; OVCAR-5, 10^−5 M, 48 h
  Growth percent (G%): 52.70%
OVCAR-5; OVCAR-5, five-dose
  TGI: 14.79 µM
HOP-92; HOP-92, 10^−5 M, 48 h
  Growth percent (G%): −37.24%
HOP-92; HOP-92, five-dose
  TGI: 0.39 µM
HOP-92; Homo sapiens, HOP-92
  GI50: 0.15 µM
HOP-92; Homo sapiens, HOP-92, read-out: LC50
  CC50: 1 µM
NCI-H23; Homo sapiens, NCI-H23
  GI50: 0.35 µM
NCI-H23; Homo sapiens, NCI-H23, read-out: LC50
  CC50: 7.08 µM
NCI-H23; NCI-H23, 10^−5 M, 48 h
  Growth percent (G%): 21.21%
NCI-H23; NCI-H23, five-dose
  TGI: 1.82 µM
HOP-62; HOP-62, 10^−5 M, 48 h
  Growth percent (G%): −38.70%
HOP-62; HOP-62, five-dose
  TGI: 0.65 µM
HOP-62; Homo sapiens, HOP-62
  GI50: 0.2 µM
HOP-62; Homo sapiens, HOP-62, read-out: LC50
  CC50: 3.24 µM
SR; 10^−5 M, 48 h
  Growth percent (G%): 33.72%
SR; Homo sapiens
  GI50: 0.5 µM
SR; Homo sapiens, read-out: LC50
  CC50: > 100 µM
SR; five-dose
  TGI: 3.98 µM
KM 12; Homo sapiens, KM12
  GI50: 0.45 µM
KM 12; Homo sapiens, KM12, read-out: LC50
  CC50: 27.5 µM
KM 12; KM 12, 10^−5 M, 48 h
  Growth percent (G%): 0.12%
KM 12; KM 12, five-dose
  TGI: 3.02 µM
NCI-H322M; 10^−5 M, 48 h
  Growth percent (G%): 13.98%
NCI-H322M; Homo sapiens
  GI50: 0.32 µM
NCI-H322M; Homo sapiens, read-out: LC50
  CC50: 7.24 µM
NCI-H322M; five-dose
  TGI: 1.45 µM
IGROV1; IGROV-1
  GI50: 0.22 µM
IGROV1; IGROV-1, read-out: LC50
  CC50: 3.47 µM
